{"source": "paper PMC2263054", "about": "“Functional evolution of the vitamin D and pregnane X receptors” (BMC Evolutionary Biology, 2007)", "key": {"[1]": {"target": "T1, Xenopus laevis VDR (Xenopus laevis, UniProt O13124)", "T1 sequence (O13124 90-422)": "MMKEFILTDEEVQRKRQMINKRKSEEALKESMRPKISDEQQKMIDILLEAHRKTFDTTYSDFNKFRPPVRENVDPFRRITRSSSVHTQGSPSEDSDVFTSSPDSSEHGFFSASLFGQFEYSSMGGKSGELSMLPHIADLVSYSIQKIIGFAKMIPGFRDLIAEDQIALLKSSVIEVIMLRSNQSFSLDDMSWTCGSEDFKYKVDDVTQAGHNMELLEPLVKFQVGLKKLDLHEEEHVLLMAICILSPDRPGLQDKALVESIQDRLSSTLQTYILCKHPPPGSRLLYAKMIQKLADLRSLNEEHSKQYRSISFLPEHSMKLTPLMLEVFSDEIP", "experiment": "luciferase reporter transactivation assay in HepG2-NTCP cells, GAL4/xlVDR LBD chimera with tk-UAS-Luc", "assay_type": "cell-based", "details": "for Effect on Xenopus laevis VDR: screening for activators, at least three concentrations of each drug; for EC50: read-out: Xenopus VDR EC50 ± SD; for Xenopus VDR relative efficacy: relative to maximal reference compound (1 μM calcitriol, efficacy = 1.0)"}, "[2]": {"target": "T2, Sea lamprey VDR (Petromyzon marinus, UniProt Q7ZZY9)", "T2 sequence (Q7ZZY9 92-406)": "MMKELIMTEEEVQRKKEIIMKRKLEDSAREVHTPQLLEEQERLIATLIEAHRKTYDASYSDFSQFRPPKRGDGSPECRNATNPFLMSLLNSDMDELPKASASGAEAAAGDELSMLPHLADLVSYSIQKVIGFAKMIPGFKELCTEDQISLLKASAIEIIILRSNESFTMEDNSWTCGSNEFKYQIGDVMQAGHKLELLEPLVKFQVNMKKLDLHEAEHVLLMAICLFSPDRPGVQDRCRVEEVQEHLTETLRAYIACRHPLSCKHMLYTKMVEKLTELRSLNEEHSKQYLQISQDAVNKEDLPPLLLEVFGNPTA", "assay_type": "cell-based", "details": "for Effect on sea lamprey VDR: screening for activators, at least three concentrations of each drug"}, "[3]": {"test_system": "Ciona VDR/PXR", "details": "for Ciona VDR/PXR EC50 ± SD: HepG2-NTCP cells, luciferase reporter, unit not given, also cells saying No effect"}, "[4]": {"target": "T3, Zebrafish VDR (Danio rerio, UniProt Q9PTN2)", "T3 sequence (Q9PTN2 121-453)": "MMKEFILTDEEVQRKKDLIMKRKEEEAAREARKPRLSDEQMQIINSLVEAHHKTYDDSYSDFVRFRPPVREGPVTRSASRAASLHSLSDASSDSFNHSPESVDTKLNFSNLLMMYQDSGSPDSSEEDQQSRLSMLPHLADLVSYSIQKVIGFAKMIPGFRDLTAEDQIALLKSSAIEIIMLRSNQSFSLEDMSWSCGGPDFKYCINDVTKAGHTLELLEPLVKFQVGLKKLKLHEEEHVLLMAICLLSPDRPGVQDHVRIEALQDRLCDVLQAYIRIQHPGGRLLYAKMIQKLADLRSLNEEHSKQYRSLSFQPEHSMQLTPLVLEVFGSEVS", "experiment": "luciferase reporter transactivation assay in HepG2-NTCP cells, GAL4/zfVDR LBD chimera with tk-UAS-Luc", "assay_type": "cell-based", "details": "for Effect on zebrafish VDR: screening for activators, at least three concentrations of each drug; for EC50: read-out: Zebrafish VDR EC50 ± SD; for Zebrafish VDR relative efficacy: relative to maximal reference compound (1 μM calcitriol, efficacy = 1.0)"}, "[5]": {"target": "T4, Mouse VDR (Mus musculus, UniProt P48281)", "T4 sequence (P48281 1-422)": "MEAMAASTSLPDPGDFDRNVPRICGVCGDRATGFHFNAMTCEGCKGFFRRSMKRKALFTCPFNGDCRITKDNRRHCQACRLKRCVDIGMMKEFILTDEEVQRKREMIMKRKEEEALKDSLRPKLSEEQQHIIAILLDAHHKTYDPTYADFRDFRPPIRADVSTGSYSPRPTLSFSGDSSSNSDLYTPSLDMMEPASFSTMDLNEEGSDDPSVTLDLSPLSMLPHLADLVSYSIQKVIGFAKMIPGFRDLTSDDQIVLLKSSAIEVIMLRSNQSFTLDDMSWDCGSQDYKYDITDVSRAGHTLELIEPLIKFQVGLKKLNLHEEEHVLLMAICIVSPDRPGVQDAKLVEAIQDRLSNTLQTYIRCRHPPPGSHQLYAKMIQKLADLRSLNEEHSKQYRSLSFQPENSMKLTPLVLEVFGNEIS", "experiment": "luciferase reporter transactivation assay in HepG2-NTCP cells, full-length mVDR with CYP3A4-PXRE-Luc", "details": "for Mouse VDR relative efficacy: relative to maximal reference compound (0.5 μM calcitriol, efficacy = 1.0)"}, "[6]": {"target": "T5, Human VDR (Homo sapiens, UniProt P11473)", "T5 sequence (P11473 1-427)": "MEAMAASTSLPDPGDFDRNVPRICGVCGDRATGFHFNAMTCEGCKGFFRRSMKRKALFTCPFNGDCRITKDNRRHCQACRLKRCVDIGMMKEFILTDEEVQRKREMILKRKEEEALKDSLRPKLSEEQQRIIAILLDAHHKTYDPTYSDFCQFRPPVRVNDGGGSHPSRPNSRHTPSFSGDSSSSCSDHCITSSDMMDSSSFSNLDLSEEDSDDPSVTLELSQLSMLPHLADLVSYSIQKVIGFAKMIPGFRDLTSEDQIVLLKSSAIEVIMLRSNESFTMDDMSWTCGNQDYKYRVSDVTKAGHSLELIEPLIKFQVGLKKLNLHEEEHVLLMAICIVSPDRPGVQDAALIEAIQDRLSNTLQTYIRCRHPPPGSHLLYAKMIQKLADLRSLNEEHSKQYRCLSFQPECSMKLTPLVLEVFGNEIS", "experiment": "luciferase reporter transactivation assay in HepG2-NTCP cells, full-length hVDR with CYP3A4-PXRE-Luc", "details": "for Human VDR relative efficacy: relative to maximal reference compound (1 μM calcitriol, efficacy = 1.0)"}, "[7]": {"test_system": "testosterone 6β-hydroxylation", "experiment": "testosterone hydroxylation (HPLC) in sea lamprey primary hepatocytes", "assay_type": "cell-based", "details": "concentration ranges per compound", "procedure": "100 μL of sample, calibration standard, or quality material standard were pipetted into separate microcentrifuge tubes and mixed with 100 μL of methanol. Samples were vortexed and centrifuged at 13,000 rpm for 4 min. The supernatant was then injected into the HPLC.\nThe flow rate was 1.2 mL/min and total run time was 25 min."}, "[8]": {"details": "HepG2-NTCP cells, luciferase reporter"}, "[9]": {"details": "HepG2-NTCP cells, luciferase reporter, unit not given, also cells saying No effect"}}, "note": "Where two headings read alike, the source gives them in different places.", "data": [{"compound": "CCCCOC(=O)c1ccc(N)cc1", "note": "[n-Butyl 4-aminobenzoate]", "values": [{"measurement": "Effect on Xenopus laevis VDR", "setting": "[1]", "result": "No effect"}, {"measurement": "Effect on sea lamprey VDR", "setting": "[2]", "result": "No effect"}, {"measurement": "activation of ciVDR/PXR", "setting": "[3]", "result": "activated"}, {"measurement": "Effect on zebrafish VDR", "setting": "[4]", "result": "No effect"}]}, {"compound": "C=C1/C(=C\\C=C2/CCC[C@]3(C)[C@@H]([C@H](C)/C=C/[C@H](C)C(C)C)CC[C@@H]23)C[C@@H](O)C[C@@H]1O", "note": "[1α-Hydroxyvitamin D2]", "values": [{"measurement": "EC50", "setting": "[1]; [8]", "result": "624 ± 49", "unit": "nM"}, {"measurement": "EC50", "setting": "[5]", "result": "0.8 ± 0.1", "unit": "nM"}, {"measurement": "EC50", "setting": "[4]; [8]", "result": "26 ± 1.7", "unit": "nM"}, {"measurement": "EC50", "setting": "[6]", "result": "13 ± 1.2", "unit": "nM"}]}, {"compound": "C[C@H](CCC(=O)O)[C@H]1CC[C@H]2[C@@H]3CC[C@@H]4C[C@H](OS(=O)(=O)O)CC[C@]4(C)[C@H]3CC[C@]12C", "note": "[Lithocholic acid 3-sulfate]", "values": [{"measurement": "Xenopus VDR EC50 ± SD", "setting": "[1]; [9]", "result": "No effect"}, {"measurement": "Mouse VDR EC50 ± SD", "setting": "[5]; [9]", "result": "No effect"}, {"measurement": "Sea lamprey VDR EC50 ± SD", "setting": "[2]", "result": "No effect"}, {"measurement": "Ciona VDR/PXR EC50 ± SD", "setting": "[3]", "result": "No effect"}, {"measurement": "Zebrafish VDR EC50 ± SD", "setting": "[4]; [9]", "result": "No effect"}, {"measurement": "Human VDR EC50 ± SD", "setting": "[6]; [9]", "result": "No effect"}]}, {"compound": "CC(=O)[C@H]1CC[C@H]2[C@@H]3CC=C4C[C@@H](O)CC[C@]4(C)[C@H]3CC[C@]12C", "note": "[Pregnenolone]", "values": [{"measurement": "effect on testosterone 6β-hydroxylation", "setting": "[7]", "result": "None of these compounds produced significant increases in testosterone 6β-hydroxylation"}, {"measurement": "Effect on Xenopus laevis VDR", "setting": "[1]", "result": "No effect"}, {"measurement": "Effect on sea lamprey VDR", "setting": "[2]", "result": "No effect"}, {"measurement": "Effect on zebrafish VDR", "setting": "[4]", "result": "No effect"}]}, {"compound": "O=Cc1c2[nH]c3ccccc3c2cc2[nH]c3ccccc3c12", "note": "[6-Formylindolo-[3,2-b]-carbazole]", "values": [{"measurement": "Xenopus VDR relative efficacy", "setting": "[1]", "result": "~0.10"}, {"measurement": "Mouse VDR relative efficacy", "setting": "[5]", "result": "~0.08"}, {"measurement": "Sea lamprey VDR relative efficacy", "setting": "[2]", "result": 0.25}, {"measurement": "Ciona VDR/PXR relative efficacy", "setting": "[3]; relative to maximal reference compound (20 μM 6-formylindolo-[3,2-b]-carbazole, efficacy = 1.0)", "result": 1.0}, {"measurement": "activation of ciVDR/PXR", "setting": "[3]; unpublished data of the authors", "result": "activated"}, {"measurement": "Zebrafish VDR relative efficacy", "setting": "[4]", "result": "< 0.03"}, {"measurement": "Human VDR relative efficacy", "setting": "[6]", "result": "~0.12"}]}, {"compound": "NC(=O)N1c2ccccc2C=Cc2ccccc21", "note": "[carbamazepine]", "values": [{"measurement": "activation of ciVDR/PXR", "setting": "[3]", "result": "activated"}]}, {"compound": "C=C1CC[C@H](O)C/C1=C/C=C1\\CCC[C@]2(C)[C@@H]([C@H](C)CC[C@@H](O)C(C)(C)O)CC[C@@H]12", "note": "[24(R),25-(OH)2-Vitamin D3]", "values": [{"measurement": "EC50", "setting": "[1]; [8]", "result": "11000 ± 1700", "unit": "nM"}, {"measurement": "Xenopus VDR relative efficacy", "setting": "[1]", "result": 0.20}, {"measurement": "EC50", "setting": "[5]; read-out: Mouse VDR EC50 ± SD, HepG2-NTCP cells, luciferase reporter", "result": "300 ± 20", "unit": "nM"}, {"measurement": "Mouse VDR relative efficacy", "setting": "[5]", "result": 1.7}, {"measurement": "EC50", "setting": "[2]; HepG2-NTCP cells, luciferase reporter, read-out: Sea lamprey VDR EC50 ± SD", "result": "5600 ± 800", "unit": "nM"}, {"measurement": "Sea lamprey VDR relative efficacy", "setting": "[2]; relative to maximal reference compound (0.5 μM calcitriol, efficacy = 1.0)", "result": 0.9}, {"measurement": "Ciona VDR/PXR EC50 ± SD", "setting": "[3]", "result": "No effect"}, {"measurement": "EC50", "setting": "[4]; [8]", "result": "700 ± 60", "unit": "nM"}, {"measurement": "Zebrafish VDR relative efficacy", "setting": "[4]", "result": 0.6}, {"measurement": "EC50", "setting": "[6]; read-out: Human VDR EC50 ± SD, HepG2-NTCP cells, luciferase reporter", "result": "300 ± 20", "unit": "nM"}, {"measurement": "Human VDR relative efficacy", "setting": "[6]", "result": 0.9}]}, {"compound": "Pregnenolone sulfate", "values": [{"measurement": "effect on testosterone 6β-hydroxylation", "setting": "[7]", "result": "None of these compounds produced significant increases in testosterone 6β-hydroxylation"}, {"measurement": "Effect on Xenopus laevis VDR", "setting": "[1]", "result": "No effect"}, {"measurement": "Effect on sea lamprey VDR", "setting": "[2]", "result": "No effect"}, {"measurement": "Effect on zebrafish VDR", "setting": "[4]", "result": "No effect"}]}]}
